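Dose response: 5 concentrations. Exposure: 48 h. Format: 96-well plates. Endpoint: linear interpolation; highest concentration if not reached. GI50: concentration for 50% inhibition of growth.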 Activity calls are given as the source filed them. Rule as the data show it: active = GI50 up to about 1.1 µM and inactive = higher.
Assays:
Experiment in all cases: NCI anticancer screen, dose series, 48 h
[1] = tested on: A498
[2] = tested on: ACHN
[3] = tested on: CAKI-1
[4] = tested on: HL-60
[5] = tested on: K562
[6] = tested on: KM12
[7] = tested on: NCI-H460
[8] = tested on: OVCAR-8
[9] = tested on: RPMI-8226
[10] = tested on: SF-539
[11] = tested on: SK-MEL-28
[12] = tested on: SNB-75
[13] = tested on: TK-10
[14] = tested on: UACC-62
[15] = tested on: UO-31
[16] = tested on: NCI-H226

SMILES | GI50 [1] | GI50 [2] | GI50 [3] | GI50 [4] | GI50 [5] | GI50 [6] | GI50 [7] | GI50 [8] | GI50 [9] | GI50 [10] | GI50 [11] | GI50 [12] | GI50 [13] | GI50 [14] | GI50 [15] | GI50 [16]
CC(=O)OCC1OC(n2cc(F)c(=O)[nH]c2=O)C(NC(=O)N(CCCl)N=O)C(OC(C)=O)C1OC(C)=O (centres undefined) | > 100 µM (inactive) | > 100 µM (inactive) | > 100 µM (inactive) | 51.5 µM (inactive) | > 100 µM (inactive) | > 100 µM (inactive) | 18.7 µM (inactive) | > 100 µM (inactive) | > 100 µM (inactive) | 29.3 µM (inactive) | > 100 µM (inactive) | 16.6 µM (inactive) | > 100 µM (inactive) | 23.2 µM (inactive) | > 100 µM (inactive) | 
O=C(N/C(=C\c1ccccc1O)c1nc2ccccc2[nH]1)c1ccccc1 | 62.4 µM (inactive) | 73.8 µM (inactive) | > 100 µM (inactive) |  | > 100 µM (inactive) | > 100 µM (inactive) | > 100 µM (inactive) | 66.1 µM (inactive) | > 100 µM (inactive) | 75.7 µM (inactive) | > 100 µM (inactive) | 12.8 µM (inactive) | 41.5 µM (inactive) | > 100 µM (inactive) | > 100 µM (inactive) | 
COc1cc(/C=C(\C#N)C(=O)c2ccccc2)ccc1OCc1ccccc1 |  | > 100 µM (inactive) | > 100 µM (inactive) | > 100 µM (inactive) | > 100 µM (inactive) | > 100 µM (inactive) |  | > 100 µM (inactive) | > 100 µM (inactive) | > 100 µM (inactive) | > 100 µM (inactive) |  | > 100 µM (inactive) | > 100 µM (inactive) | > 100 µM (inactive) | > 100 µM (inactive)
CS/C(=N/C#N)NCCc1c[nH]c2ccccc12 |  | 25.1 µM (inactive) |  | 55.2 µM (inactive) | 67 µM (inactive) | > 100 µM (inactive) | > 100 µM (inactive) | > 100 µM (inactive) | 96.8 µM (inactive) | > 100 µM (inactive) | > 100 µM (inactive) | 35.2 µM (inactive) | > 100 µM (inactive) | > 100 µM (inactive) | 49 µM (inactive) | > 100 µM (inactive)
CN(C)CC/C(=N\Nc1ccc(Cl)cc1)c1ccccc1 | 3.64 µM (inactive) | 0.478 µM (active) |  | 0.369 µM (active) | 0.327 µM (active) | 0.589 µM (active) | 1.1 µM (active) | 2.24 µM (inactive) | 0.64 µM (active) | 1.92 µM (inactive) | 1.52 µM (inactive) | 2.15 µM (inactive) | 0.593 µM (active) | 0.556 µM (active) | 0.25 µM (active) | 
O=S(O)CCCSSc1ccccc1 | 51.9 µM (inactive) | 48 µM (inactive) | 27 µM (inactive) |  | 38.1 µM (inactive) | 31.1 µM (inactive) | 78.3 µM (inactive) | 26.5 µM (inactive) |  | 25.3 µM (inactive) | 54.6 µM (inactive) | 20.8 µM (inactive) | 40.1 µM (inactive) | 36.6 µM (inactive) | 19.8 µM (inactive) | 
Cc1nc(Nc2ccccc2)sc1C(=O)NNc1ccc([N+](=O)[O-])cc1[N+](=O)[O-] |  | 14.2 µM (inactive) | 31.5 µM (inactive) | 13.9 µM (inactive) | 12 µM (inactive) | 34.4 µM (inactive) | 31.9 µM (inactive) | 39.2 µM (inactive) |  | 32.7 µM (inactive) | > 100 µM (inactive) | 22.7 µM (inactive) | 52.5 µM (inactive) | 5.94 µM (inactive) | 24 µM (inactive) | 85.5 µM (inactive)
CC(=O)C1C(c2ccc(N(C)C)cc2)c2cc3c(cc2OC1(C)O)OCO3 (centres undefined) |  | 41.2 µM (inactive) | 20.5 µM (inactive) | 24.3 µM (inactive) | 24 µM (inactive) |  | 34.4 µM (inactive) | 73.5 µM (inactive) | 26.7 µM (inactive) |  | 57.4 µM (inactive) | 24.7 µM (inactive) | 51.2 µM (inactive) | 32.9 µM (inactive) | 29.4 µM (inactive) | 

From ChEMBL document CHEMBL1201862, “PubChem BioAssay data set” (2004)
